Experimental data: patent US3985779A, “M-phenoxyphenyl propionic acid derivatives and preparation thereof” (Eisai Co., Ltd., priority 1973, dated 1976)
Entries after “also recorded” stand apart in the source; their conditions may differ. Where two headings read alike, the source gives them in different places.

How the values were obtained:
writhing syndrome = test: Analgesic activity: antagonism to acetic acid writhing syndrome in mice (Experiment J); format: in vivo, mice (dd strain male)
Protocol: Analgesic activity of the compound of the present invention in comparison with the known compounds.
Analgesic activity of the compound was tested as the measure of antagonism to writhing syndrome appeared when 0.1 ml/10g of 0.7% acetic acid was intraperitoneally injected to the dd strain male mice having 17 - 20 grs. body weight which had been abstinence from food for 18 hours.
The compounds under test were orally administered in a form of suspension in a 5% aqueous solution of gum arabic. After one hour from the administration, the onset times required for the writhing syndrome were scored.
In another Experiment in the combined use of the compounds under test and Codeine phosphate, 10 - 20 mg/kg of Codeine phosphate were orally administered immediatly after the oral administration of the compounds under test.

[1] = system: Adjuvant-induced arthritis; test: Inhibitory activity on Adjuvant arthritis in rats (Experiment E); format: in vivo
From the text: The inflammatory score and the volumes of the right and left paws of the rats were observed.

in vivo = conditions: mouse, po
Protocol: Comparison of toxicity of the phenyl propionic acid derivatives of the present invention and that of the other known anti-inflammatory agents was carried out in mice.

[2] = system: edema induced with the various inflammatory agents; test: Inhibitory activity on edema induced with the various inflammatory agents (Experiments A-G, summary); format: in vivo, rats; conditions: compared with Fenoprofen and Ibuprofen
From the text: From the abovementioned Experiments A - G, it has been found the followings: […]

ARRS-induced edema = test: Inhibitory activity on anti-rat-rabbit serum (ARRS)-induced edema in rats (Experiment D); format: in vivo
Protocol: Inhibitory activity on anti-rat-rabbit serum (ARRS)-induced edema in rats Similar Experiments was carried out by using ARRS as irritant substance.

Kaolin-induced edema = test: Inhibitory activity on Kaolin-induced Edema in Rats (Experiment B); format: in vivo
yeast-induced pyrexia = test: Antipyretic activity to the yeast-treated rats (Experiment I); format: in vivo, rats (Wistar strain male); conditions: for minimal effective dose: Rattus norvegicus, po
Protocol: To Wistar strain male rats having about 300 - 350 grs. body weight, an aqueous suspension of yeast was subcutaneously injected to induce pyrexia.
At the lapse of 4 hours since the dose of the yeast suspension, the compounds under test given in hereinaftermentioned Table 10 in a form of suspension in a 5% gum arabic aqueous solution are orally administered. The rectal temperatures of the rats were measured periodically by means of a thermister-type thermometer sold by Japan Koden K.K. As control, said 5% gum arabic aqueous solution alone was administered.

Dextran-induced edema = test: Inhibitory activity on dextran-induced edema in rats (Experiment C); format: in vivo
Protocol: Inhibitory activity on dextran-induced edema in rats Experiment was carried out in the manner same as those of the preceding Experiments in which dextran was employed as irritant substance.

stomachs of the rats = format: in vivo; conditions: 50 mg/kg oral; score 0 (nothing unusual) to 10 (considerable irritability with bleeding)
From the text: Observation of gastric irritability
Gastric irritability due to oral administration of the compounds as edema inhibitory agent was studied by macroscopical observation of the dissected stomachs of the rats which had been employed for determination of the edema inhibitions mentioned in the preceding paragraphs. The degrees of the irritability observed were scored in the 0 to 10 ratings depending upon the extent of errosions and bleedings of the stomachs, wherein the rating of 0(zero) means "nothing unusual", the rating of 10 means a state of considerable gastric irritability with bleeding and the remainders mean the intermediate degree of gastric irritability.

[3] = system: granuloma induced by Formalin Filter paper Pellet; conditions: for Adrenal / Granuloma-Wet-Weight ± S.E. / Thymus: 6 days
[4] = daily oral 40 mg/kg for 9 days, final

Compound: CC(C(=O)O)c1cccc(Oc2ccccc2Cl)c1 (stereo not drawn) [Compound (5), 2-[m-(o-chlorophenoxy)phenyl]propionic acid]
- Onset time of writhing syndrome, mean ± S.E. (writhing syndrome; 10 mg/kg p.o. combined with Codeine Phosphate 10 mg/kg): 6.7 ± 1.3 min
- Onset time of writhing syndrome, mean ± S.E. (writhing syndrome; 10 mg/kg p.o. combined with Codeine Phosphate 20 mg/kg): 6.9 ± 0.7 min
- Onset time of writhing syndrome, mean ± S.E. (writhing syndrome; 20 mg/kg p.o. combined with Codeine Phosphate 10 mg/kg): 6.9 ± 1.3 min
- Onset time of writhing syndrome, mean ± S.E. (writhing syndrome; 20 mg/kg p.o. combined with Codeine Phosphate 20 mg/kg): 8.6 ± 0.6 min
- Onset time of writhing syndrome, mean ± S.E. (writhing syndrome; 40 mg/kg p.o. combined with Codeine Phosphate 10 mg/kg): 7.1 ± 1.2 min
- Onset time of writhing syndrome, mean ± S.E. (writhing syndrome; 40 mg/kg p.o. combined with Codeine Phosphate 20 mg/kg): 13.7 ± 1.2 min
- Onset time of writhing syndrome, mean ± S.E. (writhing syndrome; 80 mg/kg p.o. combined with Codeine Phosphate 10 mg/kg): 10.5 ± 1.2 min
- Onset time of writhing syndrome, mean ± S.E. (writhing syndrome; 80 mg/kg p.o. combined with Codeine Phosphate 20 mg/kg): 14.2 ± 0.8 min
- analgesic activity in combination with Codeine (in words) (writhing syndrome; 10 - 80 mg/kg p.o. with Codeine phosphate 10 and 20 mg/kg p.o.): almost equivalent to those of Fenoprofen and Ibuprofen, and far stronger than that of Aspirin; also recorded: comparable to that of Fenoprofen and slightly stronger than that presented by Ibuprofen
- minimal effective dose (writhing syndrome; Mus musculus, 1 h, single oral administration, read-out: dose with significant antagonism / retardation of writhing syndrome): > 20 mg/kg
- analgesic activity (in words) (writhing syndrome; mouse, in vivo): high analgesic activity
- Onset time of writhing syndrome, mean ± S.E. (writhing syndrome; test compound alone, 10 mg/kg p.o.): 5.2 ± 1.2 min
- Onset time of writhing syndrome, mean ± S.E. (writhing syndrome; test compound alone, 20 mg/kg p.o.): 6.6 ± 1.6 min
- Onset time of writhing syndrome, mean ± S.E. (writhing syndrome; test compound alone, 40 mg/kg p.o.): 5.8 ± 0.4 min
- Onset time of writhing syndrome, mean ± S.E. (writhing syndrome; test compound alone, 80 mg/kg p.o.): 7.8 ± 1.7 min
- Final Paw Volume, left paw [1, 4]: 45
- Final Paw Volume, right paw [1, 4]: 66
- Final Score, Mean, left paw [1, 4]: 1.8
- Final Score, Mean, right paw [1, 4]: 3.2
- Final Score, Total, left paw [1, 4]: 9
- Final Score, Total, right paw [1, 4]: 16
- Initial Paw Volume, left paw ([1]; daily oral 40 mg/kg, initial): 39
- Initial Paw Volume, right paw ([1]; daily oral 40 mg/kg, initial): 73
- Initial Score, Mean, left paw ([1]; daily oral 40 mg/kg, initial): 1.8
- Initial Score, Mean, right paw ([1]; daily oral 40 mg/kg, initial): 3.6
- Initial Score, Total, left paw ([1]; daily oral 40 mg/kg, initial): 9
- Initial Score, Total, right paw ([1]; daily oral 40 mg/kg, initial): 18
- inhibitory activity on Adjuvant arthritis (in words) ([1]; score and paw volume, 40 mg/kg daily for 9 days): significant inhibitory activity in score and paw volume
- LD50 (in vivo): 1120 mg/kg
- anti-inflammatory activity (in words) [2]: most effective as the anti-inflammatory agent
- Edema D. ± S.E. (ARRS-induced edema; after 2 hrs, oral 8 mg/kg): .631 ± 7040
- % of Inhibition (ARRS-induced edema; after 2 hrs, oral 40 mg/kg): 10%
- Edema D. ± S.E. (ARRS-induced edema; after 2 hrs, oral 40 mg/kg): .610 ± .067
- % of Inhibition (ARRS-induced edema; after 3 hrs, oral 8 mg/kg): 11%
- Edema D. ± S.E. (ARRS-induced edema; after 3 hrs, oral 8 mg/kg): .637 ± .074
- % of Inhibition (ARRS-induced edema; after 3 hrs, oral 40 mg/kg): 19%
- Edema D. ± S.E. (ARRS-induced edema; after 3 hrs, oral 40 mg/kg): .575 ± .074
- % of Inhibition (Kaolin-induced edema; after 3 hrs, oral 8 mg/kg): 20%
- Edema D. ± S.E. (Kaolin-induced edema; after 3 hrs, oral 8 mg/kg): .334 ± .069
- % of Inhibition (Kaolin-induced edema; after 3 hrs, oral 40 mg/kg): 52%
- Edema D. ± S.E. (Kaolin-induced edema; after 3 hrs, oral 40 mg/kg): .201 ± .021
- % of Inhibition (Kaolin-induced edema; after 5 hrs, oral 8 mg/kg): 21%
- Edema D. ± S.E. (Kaolin-induced edema; after 5 hrs, oral 8 mg/kg): .442 ± .045
- % of Inhibition (Kaolin-induced edema; after 5 hrs, oral 40 mg/kg): 57%
- Edema D. ± S.E. (Kaolin-induced edema; after 5 hrs, oral 40 mg/kg): .245 ± .017
- % of Inhibition (Kaolin-induced edema; after 7 hrs, oral 8 mg/kg): 7%
- Edema D. ± S.E. (Kaolin-induced edema; after 7 hrs, oral 8 mg/kg): .563 ± .060
- % of Inhibition (Kaolin-induced edema; after 7 hrs, oral 40 mg/kg): 51%
- Edema D. ± S.E. (Kaolin-induced edema; after 7 hrs, oral 40 mg/kg): .294 ± .035
- body temperature relative to normal (in words) (yeast-induced pyrexia; 80 and 160 mg/kg p.o.): no body temperatures lower than the normal body temperatures
- Change in rectal temperature, mean ± S.E. (yeast-induced pyrexia; 1 hr, 1.25 mg/kg p.o.): +0.25 ± 0.09
- Change in rectal temperature, mean ± S.E. (yeast-induced pyrexia; 1 hr, 5 mg/kg p.o.): -0.15 ± 0.13
- Change in rectal temperature, mean ± S.E. (yeast-induced pyrexia; 1 hr, 20 mg/kg p.o.): -0.53 ± 0.10
- Change in rectal temperature, mean ± S.E. (yeast-induced pyrexia; 1 hr, 80 mg/kg p.o.): -0.55 ± 0.13
- Change in rectal temperature, mean ± S.E. (yeast-induced pyrexia; 1 hr, 160 mg/kg p.o.): -0.48 ± 0.14
- Change in rectal temperature, mean ± S.E. (yeast-induced pyrexia; 3 hrs, 1.25 mg/kg p.o.): +0.03 ± 0.21
- Change in rectal temperature, mean ± S.E. (yeast-induced pyrexia; 3 hrs, 5 mg/kg p.o.): -0.30 ± 0.17
- Change in rectal temperature, mean ± S.E. (yeast-induced pyrexia; 3 hrs, 20 mg/kg p.o.): -0.90 ± 0.10
- Change in rectal temperature, mean ± S.E. (yeast-induced pyrexia; 3 hrs, 80 mg/kg p.o.): -0.83 ± 0.09
- Change in rectal temperature, mean ± S.E. (yeast-induced pyrexia; 3 hrs, 160 mg/kg p.o.): -0.90 ± 0.17
- Change in rectal temperature, mean ± S.E. (yeast-induced pyrexia; 5 hrs, 1.25 mg/kg p.o.): +0.13 ± 0.15
- Change in rectal temperature, mean ± S.E. (yeast-induced pyrexia; 5 hrs, 5 mg/kg p.o.): -0.25 ± 0.16
- Change in rectal temperature, mean ± S.E. (yeast-induced pyrexia; 5 hrs, 20 mg/kg p.o.): -0.70 ± 0.27
- Change in rectal temperature, mean ± S.E. (yeast-induced pyrexia; 5 hrs, 80 mg/kg p.o.): -0.65 ± 0.16
- Change in rectal temperature, mean ± S.E. (yeast-induced pyrexia; 5 hrs, 160 mg/kg p.o.): -1.03 ± 0.19
- minimal effective dose (yeast-induced pyrexia; 1 h, p.o., compound (5): at one hour lapse, read-out: dose with significant antipyretic activity): 5 mg/kg
- minimal effective dose (yeast-induced pyrexia; read-out: dose with tendency of an antipyretic activity): 1.25 mg/kg
- dose with maximum antipyretic activity (yeast-induced pyrexia; p.o.): 20 mg/kg
- % of Inhibition (Dextran-induced edema; after 2 hrs, oral 8 mg/kg): 1%
- Edema D. ± S.E. (Dextran-induced edema; after 2 hrs, oral 8 mg/kg): .830 ± .052
- % of Inhibition (Dextran-induced edema; after 2 hrs, oral 40 mg/kg): 11%
- Edema D. ± S.E. (Dextran-induced edema; after 2 hrs, oral 40 mg/kg): .742 ± .037
- % of Inhibition (Dextran-induced edema; after 3 hrs, oral 8 mg/kg): 1%
- Edema D. ± S.E. (Dextran-induced edema; after 3 hrs, oral 8 mg/kg): .746 ± .026
- % of Inhibition (Dextran-induced edema; after 3 hrs, oral 40 mg/kg): 8%
- Edema D. ± S.E. (Dextran-induced edema; after 3 hrs, oral 40 mg/kg): .689 ± .035
- Degree of gastric irritability (stomachs of the rats): 2
- Adrenal ([3]; daily oral 8 mg/kg): 44.6 mg
- Granuloma-Wet-Weight ± S.E. ([3]; daily oral 8 mg/kg): 68 ± 4
- Thymus ([3]; daily oral 8 mg/kg): 545 mg
- Adrenal ([3]; daily oral 40 mg/kg): 43.8 mg
- Granuloma-Wet-Weight ± S.E. ([3]; daily oral 40 mg/kg): 89 ± 4
- Thymus ([3]; daily oral 40 mg/kg): 522 mg
- inhibitory activity on granuloma (in words) ([3]; oral 8 and 40 mg/kg/day for successive 6 days): significant effect as compared with the control
